pIC50: −log10 of the molar value.

In this experiment the target is T1, Nav1.8 channels (Homo sapiens, UniProt Q9Y5Y9).
T1 construct: expressed in transfected cells
The experiment can be described thus: Manual patch-clamp, current of stably overexpressed Nav1.8 channels (resting state voltage program). It is filed as cell-based. The following applies: for inhibition at 0.001 µM: concentration of 1 nM; for inhibition at 0.001 µM / inhibition at 0.01 µM: read-out: Inhibition rate %; for inhibition at 0.01 µM: concentration of 10 nM. As to the method: Experimental Example 1: Effects of test substances on current of stably overexpressed Nav1.8 channels monitored via manual patch-clamp technique
Test compounds were dissolved in dimethyl sulfoxide (DMSO).
The extracellular fluid was as follows: 140 mM NaCl, 3.5 mM KCl, 1 mM MgCl2•6H2O, 2 mM CaCl2•2H2O, 10 mM D-Glucose, 10 mM HEPES, 1.25 mM NaH2PO4•2H2O; the pH was adjusted to 7.4 with NaOH. The intracellular fluid was as follows: 50 mM CsCl, 10 mM NaCl, 10 mM HEPES, 60 mM CsF, 20 mM EGTA; the pH was adjusted to 7.2 with CsOH.
2. Experimental materials and instruments
• 1) patch-clamp amplifier: EPC 10 (HEKA) • 2) micromanipulator: MP225 (Sutter Instrument) • 3) inverted microscope: MF53 (Mshot) • 4) micropipette puller: P97 (Sutter Instrument) • 5) capillary glass tube: BF150-86-10 (Sutter Instrument)
3. Experimental procedures
• 1) After the compounds were prepared into solutions with specified concentrations, the solutions were sequentially added to the pipeline of the drug delivery system and labeled. • 2) The cell climbing coverslip was placed in the recording chamber, the appropriate cells were selected under the inverted microscope, and the position of the drug delivery tip was adjusted. • 3) A capillary glass tube was pulled into a suitable recording electrode using the micropipette puller, and then the electrode filled with the intracellular fluid was mounted in the microelectrode holder. The micromanipulator was adjusted under the inverted microscope to allow the recording electrode to contact the cell, and negative pressure was applied to the electrode to form a high-resistance seal. At this time, fast capacitance compensation was performed, and then the application of negative pressure was continued to break the cell membrane, forming a whole-cell recording mode. Finally, slow capacitance compensation was performed, and related parameters were recorded. • 4) After the cell current stabilized, administration was started. Each concentration of the drug was applied for five minutes or until the current stabilized before proceeding to monitor the next concentration. The drug solutions were administered via gravity-fed delivery, flowing through the recording chamber to act on the cells in an ascending order of concentration (from low to high). A peristaltic pump was employed for solution exchange in the recording process.
4 Test voltage program (resting state) and results
After the formation of the whole-cell seal, the cell voltage was clamped at -120 mV, followed by depolarization to 0 mV using a square-wave pulse with a duration of 50 ms to elicit Nav1.8 currents. This procedure was repeated every 20 s to monitor the maximum current induced by the square wave. After the current stabilized, the test compounds were administered. Once the response stabilized, the intensity of the current block was calculated.

T1 sequence (Q9Y5Y9 whole entry): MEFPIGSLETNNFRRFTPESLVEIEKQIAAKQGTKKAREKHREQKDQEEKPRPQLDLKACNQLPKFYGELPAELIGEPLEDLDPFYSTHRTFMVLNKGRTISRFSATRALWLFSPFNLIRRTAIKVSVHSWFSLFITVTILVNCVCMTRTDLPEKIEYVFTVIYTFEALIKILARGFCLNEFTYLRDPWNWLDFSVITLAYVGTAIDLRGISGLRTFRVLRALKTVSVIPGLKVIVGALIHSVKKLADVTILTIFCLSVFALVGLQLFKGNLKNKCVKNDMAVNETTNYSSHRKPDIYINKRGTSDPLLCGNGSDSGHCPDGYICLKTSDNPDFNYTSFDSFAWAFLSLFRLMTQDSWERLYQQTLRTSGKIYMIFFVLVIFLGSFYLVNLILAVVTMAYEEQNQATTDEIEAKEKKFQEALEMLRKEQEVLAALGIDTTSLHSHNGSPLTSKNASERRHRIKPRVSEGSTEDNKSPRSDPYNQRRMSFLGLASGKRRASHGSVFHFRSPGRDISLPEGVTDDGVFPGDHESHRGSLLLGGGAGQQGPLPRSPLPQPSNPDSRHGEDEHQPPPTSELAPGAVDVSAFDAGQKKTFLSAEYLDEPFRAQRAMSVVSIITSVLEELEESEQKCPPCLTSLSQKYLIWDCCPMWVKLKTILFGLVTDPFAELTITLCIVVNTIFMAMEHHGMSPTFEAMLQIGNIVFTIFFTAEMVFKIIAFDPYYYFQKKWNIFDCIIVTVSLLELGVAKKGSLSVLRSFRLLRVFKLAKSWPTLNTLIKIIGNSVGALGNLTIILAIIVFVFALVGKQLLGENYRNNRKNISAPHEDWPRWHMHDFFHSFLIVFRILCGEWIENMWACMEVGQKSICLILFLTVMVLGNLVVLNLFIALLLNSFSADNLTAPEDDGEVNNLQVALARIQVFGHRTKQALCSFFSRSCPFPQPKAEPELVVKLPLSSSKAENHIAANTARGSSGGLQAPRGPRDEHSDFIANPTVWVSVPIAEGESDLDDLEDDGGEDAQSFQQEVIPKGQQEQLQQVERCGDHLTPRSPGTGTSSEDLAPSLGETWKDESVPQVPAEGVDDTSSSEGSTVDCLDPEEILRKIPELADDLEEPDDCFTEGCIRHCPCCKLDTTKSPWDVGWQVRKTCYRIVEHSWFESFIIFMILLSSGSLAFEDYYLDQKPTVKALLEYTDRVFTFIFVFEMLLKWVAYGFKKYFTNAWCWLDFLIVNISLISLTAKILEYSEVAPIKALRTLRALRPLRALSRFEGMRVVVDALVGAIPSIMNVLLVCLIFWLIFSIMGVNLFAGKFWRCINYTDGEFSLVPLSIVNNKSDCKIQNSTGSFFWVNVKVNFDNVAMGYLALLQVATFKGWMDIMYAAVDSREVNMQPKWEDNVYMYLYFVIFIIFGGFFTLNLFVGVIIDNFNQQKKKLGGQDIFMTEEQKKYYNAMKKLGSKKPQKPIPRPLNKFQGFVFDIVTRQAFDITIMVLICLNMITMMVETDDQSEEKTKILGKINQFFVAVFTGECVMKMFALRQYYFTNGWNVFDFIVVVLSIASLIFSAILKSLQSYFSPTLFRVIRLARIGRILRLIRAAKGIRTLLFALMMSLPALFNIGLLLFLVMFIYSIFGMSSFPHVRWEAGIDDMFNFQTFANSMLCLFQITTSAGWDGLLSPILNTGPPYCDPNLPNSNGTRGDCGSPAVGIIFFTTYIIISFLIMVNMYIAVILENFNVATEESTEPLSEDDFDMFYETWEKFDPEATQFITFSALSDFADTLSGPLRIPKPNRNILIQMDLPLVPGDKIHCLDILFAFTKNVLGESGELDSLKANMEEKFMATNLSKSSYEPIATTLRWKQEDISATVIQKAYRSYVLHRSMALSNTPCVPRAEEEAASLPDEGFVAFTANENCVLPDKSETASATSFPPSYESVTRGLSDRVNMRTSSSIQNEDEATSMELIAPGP

As for `COc1c([C@@H]2C[C@](C)(C(F)(F)F)S[C@H]2C(=O)Nc2ccc(F)c(C=O)c2)ccc(F)c1F` [a-84-A, (2R,3S,5R)-3-(3,4-difluoro-2-methoxyphenyl)-N-(4-fluoro-3-formylphenyl)-5-methyl-5-(trifluoromethyl)tetrahydrothiophene-2-carboxamide], the inhibition (in general, the relative decrease from the control value, in per cent) at 0.001 µM turned out to be 69.3%.

On to `COc1c(C2CC(C)(C(F)(F)F)SC2C(=O)Nc2ccc(B(O)O)c(Br)c2)ccc(F)c1F` (stereo not drawn) [Compound 93, (2-bromo-4-(3-(3,4-difluoro-2-methoxyphenyl)-5-methyl-5-(trifluoromethyl)tetrahydrothiophene-2-carboxamido)phenyl)boronic acid], for which the inhibition at 0.01 µM was found to be 89.7%.

For the compound `COc1c(C2CC(C)(C(F)(F)F)SC2C(=O)Nc2ccc(B(O)O)c(F)c2)ccc(F)c1F` (stereo not drawn) [Compound 88, (4-(3-(3,4-difluoro-2-methoxyphenyl)-5-methyl-5-(trifluoromethyl)tetrahydrothiophene-2-carboxamido)-2-fluorophenyl)boronic acid], the inhibition at 0.01 µM amounted to 95.6%.

Regarding `COc1c([C@@H]2C[C@](C)(C(F)(F)F)S[C@H]2C(=O)Nc2ccc(F)c(CO)c2)ccc(F)c1F` [Compound 254-A, (2R,3S,5R)-3-(3,4-difluoro-2-methoxyphenyl)-N-(4-fluoro-3-(hydroxymethyl)phenyl)-5-methyl-5-(trifluoromethyl)tetrahydrothiophene-2-carboxamide], the inhibition at 0.001 µM worked out at 76.8%.

`COc1c(C2CC(C)(C(F)(F)F)SC2C(=O)Nc2cc[nH]c(=O)c2)ccc(F)c1F` (stereo not drawn) [Compound 170, 3-(3,4-difluoro-2-methoxyphenyl)-5-methyl-N-(2-oxo-1,2-dihydropyridin-4-yl)-5-(trifluoromethyl)tetrahydrothiophene-2-carboxamide]: the inhibition at 0.01 µM is 97.9%.

Consider `COc1c(C2CC(C)(C(F)(F)F)SC2C(=O)Nc2conc2C)ccc(F)c1F` (stereo not drawn) [Compound 197, 3-(3,4-difluoro-2-methoxyphenyl)-5-methyl-N-(3-methylisoxazol-4-yl)-5-(trifluoromethyl)tetrahydrothiophene-2-carboxamide], for which the inhibition at 0.01 µM worked out at 91.1%.

On to `COc1c([C@@H]2C[C@](C)(C(F)(F)F)S[C@H]2C(=O)Nc2ccnc(OCC(O)CO)c2)ccc(F)c1F` (stereo partly drawn) [Compound 191-A, (2R,3S,5R)-3-(3,4-difluoro-2-methoxyphenyl)-N-(2-(2,3-dihydroxypropoxy)pyridin-4-yl)-5-methyl-5-(trifluoromethyl)tetrahydrothiophene-2-carboxamide], for which the inhibition at 0.01 µM was 88.8%.

As to `COc1c(C2CC(C)(C(F)(F)F)SC2C(=O)Nc2ccc3c(c2)B(O)OC3)ccc(F)c1F` (stereo not drawn) [Compound 31, 3-(3,4-difluoro-2-methoxyphenyl)-N-(1-hydroxy-1,3-dihydrobenzo[c][1,2]oxaborol-6-yl)-5-methyl-5-(trifluoromethyl)tetrahydrothiophene-2-carboxamide], the inhibition at 0.01 µM was found to be 65%.

Turning to `COc1c([C@@H]2C[C@](C)(C(F)(F)F)S[C@H]2C(=O)Nc2cccc(S(=O)(=O)NCCN)c2)ccc(F)c1F` [a-45-A, (2R,3S,5R)-N-(3-(N-(2-aminoethyl)sulfamoyl)phenyl)-3-(3,4-difluoro-2-methoxyphenyl)-5-methyl-5-(trifluoromethyl)tetrahydrothiophene-2-carboxamide], the pIC50 (in general, the negative decadic logarithm of the IC50, by convention in mol/L) was 10.62.

`COc1c([C@@H]2C[C@](C)(C(F)(F)F)S[C@H]2C(=O)Nc2ccnc(SC#N)c2)ccc(F)c1F` [a-80-A, (2R,3S,5R)-3-(3,4-difluoro-2-methoxyphenyl)-5-methyl-N-(2-thiocyanatopyridin-4-yl)-5-(trifluoromethyl)tetrahydrothiophene-2-carboxamide] showed a negative-log IC50 (pIC50) of 9.72.

`COc1c([C@@H]2C[C@](C)(C(F)(F)F)S[C@H]2C(=O)Nc2cccc(OS(N)(=O)=O)c2)ccc(F)c1F` [a-39-A, (3-((2R,3S,5R)-3-(3,4-difluoro-2-methoxyphenyl)-5-methyl-5-(trifluoromethyl)tetrahydrothiophene-2-carboxamido)phenyl sulfamate]: the inhibition at 0.001 µM is 72%.

Turning to `COc1c([C@@H]2C[C@](C)(C(F)(F)F)S[C@H]2C(=O)Nc2cccc(NS(=O)(=O)CC(C)N)c2)ccc(F)c1F` (stereo partly drawn) [a-56-A, (2R,3S,5R)-N-(3-((2-aminopropyl)sulfonamido)phenyl)-3-(3,4-difluoro-2-methoxyphenyl)-5-methyl-5-(trifluoromethyl)tetrahydrothiophene-2-carboxamide], the inhibition at 0.001 µM is 66.4%.

For the compound `COc1c(C2CC(C)(C(F)(F)F)SC2C(=O)Nc2cccc(S(C)(=N)=O)c2)ccc(F)c1F` (stereo not drawn) [Compound 225, 3-(3,4-difluoro-2-methoxyphenyl)-5-methyl-N-(3-(S-methylsulfonimidoyl)phenyl)-5-(trifluoromethyl)tetrahydrothiophene-2-carboxamide], the inhibition at 0.001 µM was found to be 91.2%.

As to `COc1c(C2CC(C)(C(F)(F)F)SC2C(=O)Nc2ccnc(N=S(C)(C)=O)c2)ccc(F)c1F` (stereo not drawn) [a-10, 3-(3,4-difluoro-2-methoxyphenyl)-N-(2-((dimethyl(oxo)-16-sulfanylidene)amino)pyridin-4-yl)-5-methyl-5-(trifluoromethyl)tetrahydrothiophene-2-carboxamide], the inhibition at 0.01 µM turned out to be 88%.

Regarding `COc1c(C2CC(C)(C(F)(F)F)SC2C(=O)Nc2ccc(F)c(N=S(C)(C)=O)c2)ccc(F)c1F` (stereo not drawn) [a-15], the inhibition at 0.001 µM stood at 70.9%.

For the compound `COC(=O)c1cc(NC(=O)[C@@H]2S[C@@](C)(C(F)(F)F)C[C@H]2c2ccc(F)c(F)c2OC)ccc1B(O)O` [Compound 101-A, (4-((2R,3S,5R)-3-(3,4-difluoro-2-methoxyphenyl)-5-methyl-5-(trifluoromethyl)tetrahydrothiophene-2-carboxamido)-2-(methoxycarbonyl)phenyl)boronic acid], the inhibition at 0.01 µM amounted to 77.9%.

Take `COc1c(C2CC(C)(C(F)(F)F)SC2C(=O)Nc2ccn3nnnc3c2)ccc(F)c1F` (stereo not drawn) [Compound 203, 3-(3,4-difluoro-2-methoxyphenyl)-5-methyl-N-(tetrazolo[1,5-a]pyridin-7-yl)-5-(trifluoromethyl)tetrahydrothiophene-2-carboxamide]: the inhibition at 0.001 µM worked out at 80.4%.

In turn, `COc1c(C2CC(C)(C(F)(F)F)SC2C(=O)Nc2ccc(F)c(B(O)O)c2)ccc(F)c1F` (stereo not drawn) [Compound 19, (5-(3-(3,4-difluoro-2-methoxyphenyl)-5-methyl-5-(trifluoromethyl)tetrahydrothiophene-2-carboxamido)-2-fluorophenyl)boronic acid] showed a pIC50 of 9.48.

In the case of `COc1c([C@@H]2C[C@](C)(C(F)(F)F)S[C@H]2C(=O)Nc2ccc(C(=O)O)c(O)c2)ccc(F)c1F` [Compound 226-A, 4-((2R,3S,5R)-3-(3,4-difluoro-2-methoxyphenyl)-5-methyl-5-(trifluoromethyl)tetrahydrothiophene-2-carboxamido)-2-hydroxybenzoic acid], the inhibition at 0.001 µM was 32.2%.

Turning to `COc1c(C2CC(C)(C(F)(F)F)SC2C(=O)Nc2ccc([S+](C)[O-])nc2)ccc(F)c1F` (stereo not drawn) [Compound 232, 3-(3,4-difluoro-2-methoxyphenyl)-5-methyl-N-(6-(methylsulfinyl)pyridin-3-yl)-5-(trifluoromethyl)tetrahydrothiophene-2-carboxamide], the inhibition at 0.001 µM was determined as 78.4% and the inhibition at 0.01 µM amounted to 96.1%.

As to `COc1c([C@@H]2C[C@](C)(C(F)(F)F)S[C@H]2C(=O)Nc2ccc(B(O)O)c(F)c2)ccc(F)c1F` [Compound 88-A, (4-((2R,3S,5R)-3-(3,4-difluoro-2-methoxyphenyl)-5-methyl-5-(trifluoromethyl)tetrahydrothiophene-2-carboxamido)-2-fluorophenyl)boronic acid], the inhibition at 0.01 µM was 92.7%.

For the compound `COc1c(C2CC(C)(C(F)(F)F)SC2C(=O)Nc2ccc(=O)n(C)c2)ccc(F)c1F` (stereo not drawn) [Compound 178, 3-(3,4-difluoro-2-methoxyphenyl)-5-methyl-N-(1-methyl-6-oxo-1,6-dihydropyridin-3-yl)-5-(trifluoromethyl)tetrahydrothiophene-2-carboxamide], the inhibition at 0.01 µM is 86%.

Take `COc1c(C2CC(C)(C(F)(F)F)SC2C(=O)Nc2cn(C(F)F)nc2C)ccc(F)c1F` (stereo not drawn) [Compound 199, (4-(3-(3,4-difluoro-2-methoxyphenyl)-5-methyl-5-(trifluoromethyl)tetrahydrothiophene-2-carboxamido)-1-difluoromethyl-3-methyl)pyrazole]: the inhibition at 0.01 µM came to 89.4%.
